Laboratory results taken from ChEMBL document CHEMBL1201862, “PubChem BioAssay data set” (2004).
Calls of active or inactive are those of the source.

Assays:
[1] = test system: H9c2; assay: cells; assay type: functional, cell-based; conditions: Rattus norvegicus, H9c2, Myocardium;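 further: confirmatory concentration-response retest of ultra-high-throughput screening hits for modulation of myocardial damage; cell death induced by hydrogen peroxide oxidative stress; compound pretreatment for 60 min then peroxide exposure for 2 h; potency is for protecting the cells against peroxide damage rather than for killing them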
[2] = test system: HEK293; assay: cells; conditions: Homo sapiens
[3] = inhibitors of firefly luciferase expression or activity, dose response, H4 neuroglioma cells, luminescence (AID 1990); assay type: functional, cell-based
[4] = test system: HEK293; assay: cells; conditions: Homo sapiens; remark: listed apart in the source
[5] = inhibitors of SNCA 5'UTR-driven reporter translation, confirmation, H4 neuroglioma cells, luminescence (AID 1988); assay type: functional, cell-based
[6] = microbe, parasite or virus in culture; assay type: functional; conditions: Mycobacterium tuberculosis
[7] = biological target: T1, Cysteine protease ATG4B (Homo sapiens, UniProt Q9Y4P1); assay type: functional;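 further: Fluorescence-based dose-response confirmation assay measuring inhibition of ATG4B activity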
T1 sequence (Q9Y4P1 whole entry): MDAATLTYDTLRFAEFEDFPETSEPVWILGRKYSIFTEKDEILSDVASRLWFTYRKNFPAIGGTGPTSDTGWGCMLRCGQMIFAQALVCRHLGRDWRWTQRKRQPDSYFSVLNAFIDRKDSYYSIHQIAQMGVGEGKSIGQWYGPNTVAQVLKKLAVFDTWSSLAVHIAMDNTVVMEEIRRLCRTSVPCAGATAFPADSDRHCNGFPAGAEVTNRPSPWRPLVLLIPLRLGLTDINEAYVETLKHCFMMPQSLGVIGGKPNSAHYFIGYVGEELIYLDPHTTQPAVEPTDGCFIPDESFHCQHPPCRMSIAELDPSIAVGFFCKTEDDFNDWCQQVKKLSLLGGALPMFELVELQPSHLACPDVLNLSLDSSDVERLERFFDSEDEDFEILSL

[8] = biological target: Phospholipase A2 (Homo sapiens, UniProt P04054); assay type: functional;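 further: confirmatory dose-response counterscreen on phospholipase A2, testing hits that came from an ultra-high-throughput screen for ATG4B inhibitors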
[9] = test system: Streptococcus sp. 'group A'; assay: growth inhibition of control SK(-) GAS strain, dose response, counter-screen for streptokinase expression inhibitor project, luminescence, kanamycin, BacTiterGlo, confirmation (AID 1900); assay type: functional, organism-based
[10] = test system: Streptococcus; assay: Group A Streptococcus viability loss, dose response, counter-screen for streptokinase expression inhibitor project, luminescence, BacTiterGlo (AID 1915); assay type: functional, organism-based;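 further: potency for reduction of bacterial viability or growth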
[11] = biological target: Disintegrin and metalloproteinase domain-containing protein 17 (Homo sapiens, UniProt P78536); assay: ADAM17 protease inhibitors, dose response, counter-screen for ADAM10 exosite inhibitor project, biochemical, quenched FRET substrate (AID 743253)
[12] = biological target: T2, Streptokinase A (Streptococcus pyogenes serotype M1, UniProt P10520); assay: S. pyogenes streptokinase expression inhibitors, potency, dose response, plasminogen activation absorbance, OD405 (AID 1914); assay type: functional, Streptococcus pyogenes M1 GAS;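 further: secreted streptokinase activity via plasminogen activation per viability signal from cell pellet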
T2 sequence (P10520 whole entry): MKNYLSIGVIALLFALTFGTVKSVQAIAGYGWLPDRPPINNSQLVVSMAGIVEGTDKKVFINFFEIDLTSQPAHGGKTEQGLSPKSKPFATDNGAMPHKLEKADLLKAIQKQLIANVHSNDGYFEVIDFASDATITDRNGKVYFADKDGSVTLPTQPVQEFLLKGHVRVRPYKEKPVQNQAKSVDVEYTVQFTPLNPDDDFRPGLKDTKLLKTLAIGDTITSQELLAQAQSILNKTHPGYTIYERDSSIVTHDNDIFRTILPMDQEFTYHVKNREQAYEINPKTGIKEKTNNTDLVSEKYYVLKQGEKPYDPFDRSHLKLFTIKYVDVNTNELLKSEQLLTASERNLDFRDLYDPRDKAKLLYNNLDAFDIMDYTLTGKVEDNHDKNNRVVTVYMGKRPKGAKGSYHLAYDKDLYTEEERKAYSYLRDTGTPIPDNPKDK

[13] = biological target: Mu-type opioid receptor (Homo sapiens, UniProt P35372); assay type: functional, cell-based;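 further: U2OS cells with beta-arrestin recruitment to OPRM1 by beta-gal complementation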
[14] = biological target: 5-hydroxytryptamine receptor 2A (Mus musculus, UniProt P35363); assay type: functional, cell-based;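 further: CHO-K1 cells with tagged receptor and beta-arrestin; agonist potency measured as compound-induced activation of the receptor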
[15] = P. falciparum Dd2 growth inhibitors, dose response, SYBR Green, cherry-picked samples (AID 1159567); assay type: functional, cell-based
[16] = P. falciparum ATP4 D1247Y mutant growth inhibitors, dose response, NITD609-resistant line, SYBR Green, dry powder (AID 1159571); assay type: functional, cell-based;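 further: parasites synchronized at ring stage by sorbitol before testing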
[17] = P. falciparum Dd2 growth inhibitors, dose response, SYBR Green, dry powder samples (AID 1159566); assay type: functional, cell-based;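 further: potency for growth inhibition with lower SYBR green DNA signal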
[18] = P. falciparum 3D7-ScDHODH growth inhibitors, dose response, SYBR Green, dry powder samples (AID 1159570); assay type: functional, cell-based;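 further: parasite growth measured after 72 hours of compound exposure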
[19] = biological target: T3, RNA-binding protein pos-1 (Caenorhabditis elegans, UniProt G5EF15); assay: inhibitors of POS-1/mex-3 RNA binding, dose response, biochemical, fluorescence polarization (AID 1964);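 further: purified POS-1 fused to maltose binding protein made in E. coli; potency of compounds blocking POS-1 binding to fluorescent RNA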
T3 sequence (G5EF15 whole entry): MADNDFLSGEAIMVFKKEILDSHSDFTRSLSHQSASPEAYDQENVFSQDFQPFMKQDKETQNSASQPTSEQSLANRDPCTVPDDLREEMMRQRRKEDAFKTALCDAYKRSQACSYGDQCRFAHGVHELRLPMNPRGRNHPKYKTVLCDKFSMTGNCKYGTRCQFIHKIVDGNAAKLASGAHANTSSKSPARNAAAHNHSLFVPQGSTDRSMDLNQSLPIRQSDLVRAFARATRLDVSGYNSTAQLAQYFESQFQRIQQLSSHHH

[20] = biological target: Cytochrome P450 2C9 (Homo sapiens, UniProt P11712)
[21] = biological target: T4, Zinc finger protein mex-5 (Caenorhabditis elegans, UniProt Q9XUB2); assay: MEX-5/TCR-2 RNA interaction inhibitors, dose response, biochemical, C. elegans, fluorescence polarization (AID 1960)
T4 sequence (Q9XUB2 whole entry): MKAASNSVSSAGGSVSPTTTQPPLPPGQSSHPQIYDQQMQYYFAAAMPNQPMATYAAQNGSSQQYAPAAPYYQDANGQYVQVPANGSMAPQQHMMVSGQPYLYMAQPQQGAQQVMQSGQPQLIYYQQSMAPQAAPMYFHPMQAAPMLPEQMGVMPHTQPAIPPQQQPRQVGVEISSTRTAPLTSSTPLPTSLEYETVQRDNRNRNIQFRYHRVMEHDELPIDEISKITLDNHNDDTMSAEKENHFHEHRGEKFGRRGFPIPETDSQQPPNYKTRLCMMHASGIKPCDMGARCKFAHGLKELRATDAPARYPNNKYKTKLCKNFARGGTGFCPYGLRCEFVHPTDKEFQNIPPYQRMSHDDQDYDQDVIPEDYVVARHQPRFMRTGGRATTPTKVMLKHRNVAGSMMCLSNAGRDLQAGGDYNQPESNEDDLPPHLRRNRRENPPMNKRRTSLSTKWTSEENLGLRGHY

[22] = biological target: Paired box protein Pax-8 (Homo sapiens, UniProt Q06710); assay: inhibitors of PAX8-driven TPO luciferase reporter, dose response, RMG-I cells, cherry-pick (AID 687027); assay type: functional, cell-based;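 further: luciferase reporter driven by Pax8 target thyroperoxidase promoter measured by SteadyGlo luminescence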
[23] = P. falciparum Dd2 growth inhibitors, dose response, SYBR Green, dry powder samples, set 9 (AID 1159568); assay type: functional, cell-based
[24] = biological target: FAD-linked sulfhydryl oxidase ALR (Homo sapiens, UniProt P55789); assay: inhibitors of human ALR sulfhydryl oxidase, dose response, biochemical, H2O2 detection, luminescence, cherry-pick (AID 493248)
[25] = test system: Vero; assay: cells; assay type: functional; conditions: Chlorocebus sabaeus
[26] = biological target: T5, Heat shock factor protein 1 (Mus musculus, UniProt P38532); assay: HSF1 potentiators in luciferase reporter cells, confirmation, cell-based, NIH3T3, luminescence, dose retest (AID 435004); assay type: functional;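 further: stress induced by proteasome inhibitor MG132 added 30 min after compound; luciferase reporter driven by HSF1 response element in NIH3T3 cells; actives raise luminescence as potentiators of the MG132 stress response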
T5 sequence (P38532 whole entry): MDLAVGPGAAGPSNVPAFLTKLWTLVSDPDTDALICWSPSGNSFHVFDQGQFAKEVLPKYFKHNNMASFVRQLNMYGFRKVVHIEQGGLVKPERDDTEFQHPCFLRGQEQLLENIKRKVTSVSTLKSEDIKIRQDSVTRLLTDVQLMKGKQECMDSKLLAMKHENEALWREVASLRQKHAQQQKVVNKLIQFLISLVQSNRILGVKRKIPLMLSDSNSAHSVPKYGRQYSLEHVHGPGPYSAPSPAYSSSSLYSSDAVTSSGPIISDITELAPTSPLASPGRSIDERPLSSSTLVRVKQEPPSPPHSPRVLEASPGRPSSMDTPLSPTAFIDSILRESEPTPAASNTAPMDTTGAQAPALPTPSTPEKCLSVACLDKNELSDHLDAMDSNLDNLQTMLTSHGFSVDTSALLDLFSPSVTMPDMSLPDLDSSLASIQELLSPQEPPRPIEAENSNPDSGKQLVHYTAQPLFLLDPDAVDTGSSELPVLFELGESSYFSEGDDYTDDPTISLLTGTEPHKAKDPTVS

[27] = biological target: Heat shock protein HSP 90-alpha (Homo sapiens, UniProt P07900); assay type: functional, organism-based
[28] = biological target: Albumin (Bos taurus, UniProt P02769); assay: Counterscreen for inhibitors of T-cell receptor (TCR)-CD3 interaction: Fluorescence-based biochemical high throughput dose response assay to identify inhibitors of T-cell receptor (TCR)-CD3 interaction using a TAMRA-labeled BSA probe.; assay type: functional
Chain of Albumin (P02769 whole entry): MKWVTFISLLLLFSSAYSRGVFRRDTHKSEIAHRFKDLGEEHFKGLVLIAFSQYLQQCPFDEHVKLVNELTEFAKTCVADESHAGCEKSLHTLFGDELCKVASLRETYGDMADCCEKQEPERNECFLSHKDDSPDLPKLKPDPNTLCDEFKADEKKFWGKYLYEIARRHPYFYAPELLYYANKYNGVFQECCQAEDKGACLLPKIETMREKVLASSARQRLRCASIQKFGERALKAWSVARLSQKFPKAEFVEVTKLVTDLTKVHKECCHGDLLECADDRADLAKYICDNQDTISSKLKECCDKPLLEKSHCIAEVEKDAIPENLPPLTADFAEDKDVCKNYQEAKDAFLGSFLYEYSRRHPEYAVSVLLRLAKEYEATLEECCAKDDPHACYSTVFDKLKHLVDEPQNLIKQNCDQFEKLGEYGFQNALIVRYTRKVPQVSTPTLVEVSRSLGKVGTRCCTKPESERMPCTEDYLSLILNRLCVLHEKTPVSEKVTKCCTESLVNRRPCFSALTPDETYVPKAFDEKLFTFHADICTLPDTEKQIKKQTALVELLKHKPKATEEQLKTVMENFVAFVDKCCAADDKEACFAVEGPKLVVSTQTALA

Chain of 5-hydroxytryptamine receptor 2A (P35363 whole entry): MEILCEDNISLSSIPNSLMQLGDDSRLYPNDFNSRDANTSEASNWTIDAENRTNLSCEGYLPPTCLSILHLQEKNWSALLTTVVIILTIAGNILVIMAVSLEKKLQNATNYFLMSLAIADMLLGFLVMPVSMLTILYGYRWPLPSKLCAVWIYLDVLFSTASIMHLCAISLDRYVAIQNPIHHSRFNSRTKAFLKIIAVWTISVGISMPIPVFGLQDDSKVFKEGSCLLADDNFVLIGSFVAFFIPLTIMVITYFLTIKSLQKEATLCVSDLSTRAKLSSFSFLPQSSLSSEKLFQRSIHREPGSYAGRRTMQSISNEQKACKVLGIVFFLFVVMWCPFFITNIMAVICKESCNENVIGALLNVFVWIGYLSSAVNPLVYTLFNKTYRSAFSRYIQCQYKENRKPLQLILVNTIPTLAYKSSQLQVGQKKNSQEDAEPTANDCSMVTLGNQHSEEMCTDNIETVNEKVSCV
Chain of Disintegrin and metalloproteinase domain-containing protein 17 (P78536 whole entry, the tested form may be a part): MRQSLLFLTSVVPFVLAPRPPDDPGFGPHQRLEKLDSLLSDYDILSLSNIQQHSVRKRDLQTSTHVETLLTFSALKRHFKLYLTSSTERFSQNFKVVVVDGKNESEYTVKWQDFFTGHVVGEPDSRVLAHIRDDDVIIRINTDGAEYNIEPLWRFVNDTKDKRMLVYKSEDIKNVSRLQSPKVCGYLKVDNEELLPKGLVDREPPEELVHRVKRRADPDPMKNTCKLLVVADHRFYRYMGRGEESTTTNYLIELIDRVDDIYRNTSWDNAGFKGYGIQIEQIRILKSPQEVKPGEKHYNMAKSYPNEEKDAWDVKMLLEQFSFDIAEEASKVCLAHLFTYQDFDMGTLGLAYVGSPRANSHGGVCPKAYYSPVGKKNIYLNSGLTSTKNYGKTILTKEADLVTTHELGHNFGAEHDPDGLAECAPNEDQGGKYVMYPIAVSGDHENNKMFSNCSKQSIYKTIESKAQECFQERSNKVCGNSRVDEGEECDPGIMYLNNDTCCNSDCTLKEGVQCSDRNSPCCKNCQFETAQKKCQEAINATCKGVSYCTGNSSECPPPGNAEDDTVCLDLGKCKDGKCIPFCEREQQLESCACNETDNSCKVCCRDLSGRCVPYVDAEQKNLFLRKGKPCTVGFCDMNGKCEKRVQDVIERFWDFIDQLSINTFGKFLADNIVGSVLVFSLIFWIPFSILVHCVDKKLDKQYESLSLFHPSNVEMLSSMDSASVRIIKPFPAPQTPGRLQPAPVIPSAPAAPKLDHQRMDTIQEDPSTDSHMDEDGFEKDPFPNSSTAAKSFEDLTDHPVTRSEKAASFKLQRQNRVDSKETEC
Chain of Mu-type opioid receptor (P35372 whole entry): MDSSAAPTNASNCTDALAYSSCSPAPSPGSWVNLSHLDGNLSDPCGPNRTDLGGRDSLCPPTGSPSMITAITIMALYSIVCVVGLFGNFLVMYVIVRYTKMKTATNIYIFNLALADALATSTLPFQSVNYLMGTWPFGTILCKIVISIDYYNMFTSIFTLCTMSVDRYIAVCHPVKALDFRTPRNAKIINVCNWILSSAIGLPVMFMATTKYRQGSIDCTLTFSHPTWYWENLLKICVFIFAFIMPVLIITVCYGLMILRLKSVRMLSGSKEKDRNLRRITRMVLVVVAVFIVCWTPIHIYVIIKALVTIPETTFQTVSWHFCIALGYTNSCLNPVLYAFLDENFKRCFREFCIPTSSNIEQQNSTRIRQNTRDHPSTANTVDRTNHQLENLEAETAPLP
Chain of Phospholipase A2 (P04054 whole entry): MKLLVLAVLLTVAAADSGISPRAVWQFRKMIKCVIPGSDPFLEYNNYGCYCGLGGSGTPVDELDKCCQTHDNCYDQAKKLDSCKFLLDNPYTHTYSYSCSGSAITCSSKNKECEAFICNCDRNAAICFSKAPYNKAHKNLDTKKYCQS
Chain of Paired box protein Pax-8 (Q06710 whole entry): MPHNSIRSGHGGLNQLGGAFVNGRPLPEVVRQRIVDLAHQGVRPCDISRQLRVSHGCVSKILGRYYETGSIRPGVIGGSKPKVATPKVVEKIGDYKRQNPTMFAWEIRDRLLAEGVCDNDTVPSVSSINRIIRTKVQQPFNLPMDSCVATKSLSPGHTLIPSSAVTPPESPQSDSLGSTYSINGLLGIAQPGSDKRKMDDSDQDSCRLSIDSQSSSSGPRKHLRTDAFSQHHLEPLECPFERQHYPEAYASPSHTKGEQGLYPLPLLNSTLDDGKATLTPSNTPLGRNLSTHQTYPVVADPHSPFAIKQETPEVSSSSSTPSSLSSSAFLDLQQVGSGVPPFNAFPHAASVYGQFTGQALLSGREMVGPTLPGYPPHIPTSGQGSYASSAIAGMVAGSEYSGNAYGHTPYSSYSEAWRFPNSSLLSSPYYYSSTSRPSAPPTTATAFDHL
Chain of Cytochrome P450 2C9 (P11712 whole entry): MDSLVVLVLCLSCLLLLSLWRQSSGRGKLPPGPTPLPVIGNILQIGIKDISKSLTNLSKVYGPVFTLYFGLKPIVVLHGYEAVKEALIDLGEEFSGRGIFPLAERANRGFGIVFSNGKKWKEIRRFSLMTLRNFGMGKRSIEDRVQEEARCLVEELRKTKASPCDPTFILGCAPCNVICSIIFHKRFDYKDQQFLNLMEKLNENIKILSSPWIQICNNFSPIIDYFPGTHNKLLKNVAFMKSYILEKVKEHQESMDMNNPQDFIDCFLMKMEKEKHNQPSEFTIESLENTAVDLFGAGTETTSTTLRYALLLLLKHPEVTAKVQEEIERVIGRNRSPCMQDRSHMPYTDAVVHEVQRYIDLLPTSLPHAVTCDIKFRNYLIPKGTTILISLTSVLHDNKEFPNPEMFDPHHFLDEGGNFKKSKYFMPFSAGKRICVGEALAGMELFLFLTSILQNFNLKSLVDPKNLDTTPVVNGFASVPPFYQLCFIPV
Chain of FAD-linked sulfhydryl oxidase ALR (P55789 whole entry): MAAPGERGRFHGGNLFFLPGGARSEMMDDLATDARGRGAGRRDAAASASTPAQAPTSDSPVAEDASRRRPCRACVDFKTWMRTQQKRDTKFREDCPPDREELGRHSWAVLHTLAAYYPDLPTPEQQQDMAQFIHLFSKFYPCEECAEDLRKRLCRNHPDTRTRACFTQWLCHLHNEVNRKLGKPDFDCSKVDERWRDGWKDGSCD

Compound: Cc1cccc(NC(=O)COc2cccc3c2CCNC3=O)c1
- IC50 [1]: > 79 µM (inactive)

Compound: CCNC(=O)/C(C#N)=C/c1c(N(Cc2ccccc2)Cc2ccccc2)nc2ccccn2c1=O
- IC50 [1]: > 79 µM (inactive)

Compound: COc1ccc(-c2nnc3sc(C4CCCCC4)nn23)cc1OC
- EC50 [2]: > 59.7 µM (inactive)
- EC50 [3]: 58.6 µM (active)
- EC50 [4]: > 59.7 µM (inactive)
- EC50 [5]: 25.6 µM (active)
- CC50 [6]: > 40 µM (active)

Compound: Cc1cc(NS(=O)(=O)c2ccc(Nc3nc(-c4ccc(C)c(C)c4)cs3)cc2)no1
- IC50 [7]: 13.1 µM (active)
- IC50 [8]: 11.9 µM (active)

Compound: CCOC(=O)c1c(C)nc2sc3c(=O)n(-c4ccc(C(C)=O)cc4)cnc3c2c1-c1ccc(OC)cc1
- IC50 [1]: > 79 µM (inactive)

Compound: O=C(NNC(=O)c1cc(-c2ccccc2)nc2ccccc12)Nc1cccc(Cl)c1
- EC50 [9]: 3.9 µM (active)
- EC50 [10]: 40.2 µM (active)
- IC50 [11]: > 69.5 µM (inactive)
- EC50 [12]: 22.4 µM (active)

Compound: COc1cc(OC)cc(-c2nc3ccccc3c(=O)n2OC(=O)c2ccc(Br)cc2)c1
- IC50 [7]: 2.51 µM (active)
- IC50 [8]: 4.74 µM (active)

Compound: Cc1ccccc1CN1CCN(C(=O)c2ccco2)CC1
- EC50 [13]: 92.5 µM (inactive)
- EC50 [14]: 4.89 µM (active)

Compound: C[C@@H]1CN([C@H](C)CO)C(=O)c2cccc(NC(=O)c3nc4ccccc4s3)c2O[C@H]1CN(C)C(=O)Nc1ccc(C(F)(F)F)cc1
- AC50 [15]: 2.06 µM (active)
- AC50 [16]: 0.816 µM (active)
- AC50 [17]: 1.08 µM (active)
- AC50 [18]: 1.18 µM (active)

Compound: Cn1cc(C2=C(c3ccc(Cl)cc3Cl)C(=O)NC2=O)c2ccccc21 [SB-216763]
- EC50 [2]: > 59.6 µM (inactive)
- EC50 [19]: 26 µM (active)
- AC50 [20]: 31.6 µM (inconclusive)
- EC50 [4]: > 59.6 µM (inactive)
- EC50 [21]: 21.5 µM (inconclusive)
- AC50 [22]: 4.61 µM (active)

Compound: CS(=O)(=O)N1[C@H](C#N)[C@H](c2ccc(C#Cc3cccc(F)c3)cc2)[C@H]1CO
- AC50 [23]: 10.1 µM (active)

Compound: COC(=O)c1ccc(N2CCC(c3cc(-c4ccc(OC)cc4)n[nH]3)CC2)c([N+](=O)[O-])c1
- IC50 [11]: > 69.5 µM (inactive)
- EC50 [12]: > 150 µM (not active)

Compound: CC(C)c1ccc(NC2CCCN(C(=O)CCN3Cc4ccccc4C3=O)C2)cc1 (configuration not stated)
- IC50 [7]: 15.5 µM (active)
- AC50 [24]: 4.43 µM (active)
- IC50 [8]: 7.98 µM (active)

Compound: COc1ccc(-c2cc(CNS(=O)(=O)c3ccc(NC(C)=O)cc3)on2)cc1
- CC50 [25]: > 25 µM (active)

Compound: O=C(N/N=C/c1ccccn1)c1cc(-c2ccc(Br)cc2)nc2ccccc12
- EC50 [26]: 4.85 µM (active)
- CC50 [25]: 9.94 µM (active)
- AC50 [27]: 2.24 µM (active)

Compound: C[C@@H]1CCCCO[C@H](CN(C)S(=O)(=O)c2ccc(F)cc2)[C@H](C)CN([C@H](C)CO)C(=O)c2cc(N(C)C)ccc2O1
- AC50 [23]: 4.45 µM (active)

Compound: COc1ccc([C@H]2C/C=C/C[C@H](C)Oc3ccccc3C(=O)N(C)[C@@H](Cc3ccccc3)C(=O)N2)c(OC)c1.COc1ccc([C@H]2C/C=C\C[C@H](C)Oc3ccccc3C(=O)N(C)[C@@H](Cc3ccccc3)C(=O)N2)c(OC)c1
- AC50 [23]: 1.58 µM (active)

Compound: O=[N+]([O-])c1cc(S(=O)(=O)Nc2ccccc2)ccc1N1CCN(c2ccccc2)CC1
- EC50 [9]: 16.2 µM (active)
- EC50 [10]: > 150 µM (not active)
- CC50 [25]: 13.5 µM (active)
- IC50 [11]: > 69.5 µM (inactive)
- EC50 [12]: 23.9 µM (active)

Compound: COc1cc(CN2CCN(c3ncccn3)CC2)cc(OC)c1
- EC50 [13]: 92.4 µM (inactive)
- EC50 [14]: 0.384 µM (active)

Compound: Cc1ccc(O)c(/C=N/NC(=O)COc2ccc3c(C)cc(=O)oc3c2)c1
- IC50 [28]: > 94.1 µM (inactive)

Compound: COc1ccc(-c2cnnn2-c2ccc(NC(=O)c3ccc(S(=O)(=O)N4CCCCC4)cc3)cc2)cc1OC
- IC50 [28]: > 94.1 µM (inactive)

Compound: c1ccc(COc2ccc(CN3CCN(c4ccccn4)CC3)cc2)cc1
- EC50 [13]: 92.5 µM (inactive)
- EC50 [14]: 0.054 µM (active)

Compound: COc1ccc(N(CC(=O)Nc2cccc(C(C)=O)c2)S(=O)(=O)c2ccc(NC(C)=O)cc2)cc1
- IC50 [1]: > 79 µM (inactive)
